Laboratory results reported in PMC12629169, “Antiaging, Wound‐Healing Properties and Chemical Characterization of Crude Hydroalcoholic Extract and Fractions of Myrcia neoobscura” (Chemistry & Biodiversity, 2025).
≈ marks a conversion by molar mass, not a printed value.

Molecular target: T1, collagenase
T1 construct: gene colG
Assay: ninhydrin colorimetric gelatin hydrolysis
Format: biochemical
Settings: gelatin substrate, Tris-HCl pH 7.5, 5 mM CaCl2, 1 µM ZnCl2, 37°C

`O=C(O)c1cc(O)c(O)c(O)c1` [compound 1, gallic acid] showed an IC50 of 108.88 ± 12.71 µg/mL (≈ 640 µM).
